≈ marks a conversion by molar mass, not a printed value. Where “and” joins values, the source holds several entries; their conditions need not be identical. Identical values can stand only once.
Key:
Format in all cases: cell-based
Escherichia coli HB101 [1] = assay: Disk sensitivity test (modified Kirby-Bauer), E. coli;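 note: filter disk loaded with compound in DMSO laid on an LB agar bacterial lawn, kept overnight at 37 °C, then the inhibition zone around the disk is measured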
Experimental: (§2) Filter disks were provided as sterile filter paper (about 6 mm in diameter) and spotted with 20 μL of a selected compound. Each compound was initially dissolved in dimethylsulfoxide (DMSO); any subsequent dilutions were also made in DMSO. Each filter was placed on an LB agar plate spread with 100 μL of a bacterial culture that had been grown overnight in suitable LB broth. Plates were incubated overnight at 37° C., after which, the extent of growth inhibition around each filter disk was measured. Bacterial strains included Staphylococcus aureus (ATCC 25923), Pseudomonas aeruginosa PAO1, Bacillus subtilis W168 and Escherichia coli HB101. […] The latter two strains are non-pathogenic Gram-positive and Gram-negative bacterial strains, respectively.

[2] = test system: Gram positive and Gram negative bacteria; assay: Antimicrobial activity, summary of TABLES 16-18
Experimental: (§1) The new class of fluorinated triazapentadiene compounds with and without metal complexation as described herein were analyzed for antibacterial activity against several bacterial strains (both Gram positive and Gram negative). Methods for antimicrobial analysis included a modified Kirby-Bauer method and a determination of their minimum inhibitory concentrations. In brief, the modified Kirby-Bauer method relied on placement of a filter disk impregnated with a desired compound on a solid growth medium. Bacteria were grown to a confluent lawn and the extent of growth inhibition was measured (e.g., as an extent/percentage of a clear zone on the disk and/or solid medium).
For MIC assessment, compounds were initially dissolved in DMSO and serial dilutions of soluble compounds were made in LB broth.

Bacillus subtilis W168 [3] = assay: Disk sensitivity test (modified Kirby-Bauer), B. subtilis;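 note: Compound-loaded filter disks on LB agar plates seeded with a bacterial lawn, plates held overnight at 37 °C, then the clear zone around each disk measured, compounds in DMSO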
Experimental: as §2

[4] = test system: Pseudomonas aeruginosa PAO1; assay: Minimum inhibitory concentration in LB broth, P. aeruginosa; conditions: for Relative to AgNO3: efficacy per mole from MIC values
Bacillus subtilis W168 [5] = assay: Minimum inhibitory concentration in LB broth, B. subtilis; conditions: for Relative to AgNO3: efficacy per mole from MIC values
Escherichia coli HB101 [6] = assay: Minimum inhibitory concentration in LB broth, E. coli; conditions: for Relative to AgNO3: efficacy per mole from MIC values;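 for all read-outs here: broth dilution MIC, test compounds first taken up in DMSO, then serially diluted in LB medium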
[7] = test system: Pseudomonas aeruginosa PAO1; assay: Disk sensitivity test (modified Kirby-Bauer), P. aeruginosa;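 note: Compound-loaded filter disks on LB agar lawns, DMSO as solvent, zone of inhibition around each disk read after overnight incubation at 37 °C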
Experimental: as §2

[8] = test system: Staphylococcus aureus (ATCC 25923); assay: Minimum inhibitory concentration in LB broth, S. aureus; conditions: for Relative to AgNO3: efficacy per mole from MIC values
[9] = test system: Staphylococcus aureus (ATCC 25923); assay: Disk sensitivity test (modified Kirby-Bauer), S. aureus;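 note: Compound-loaded filter disks on LB agar plates seeded with a confluent bacterial lawn, compound dissolved in DMSO, plates kept overnight at 37 °C, then inhibition zone around disk measured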
[10] = test system: Gram-positive bacteria (e.g., S. aureus and B. subtilis); assay: Growth inhibition of Gram-positive bacteria, summary of TABLES 6-19
Experimental: as §1
Filter disks were provided as sterile filter paper (about 6 mm in diameter) and spotted with 20 μL of a selected compound. Each compound was initially dissolved in dimethylsulfoxide (DMSO); any subsequent dilutions were also made in DMSO. Each filter was placed on an LB agar plate spread with 100 μL of a bacterial culture that had been grown overnight in suitable LB broth. Plates were incubated overnight at 37° C., after which, the extent of growth inhibition around each filter disk was measured. Bacterial strains included Staphylococcus aureus (ATCC 25923), Pseudomonas aeruginosa PAO1, Bacillus subtilis W168 and Escherichia coli HB101. […]

Structure (SMILES)	Diameter of the zone of growth inhibition (Escherichia coli HB101 [1]; 5.7 × 10^0 mM) [mm]	Diameter of the zone of growth inhibition (Escherichia coli HB101 [1]; 5.7 × 10^1 mM) [mm]	Diameter of the zone of growth inhibition (Escherichia coli HB101 [1]; 5.7 × 10^−1 mM) [mm]	Diameter of the zone of growth inhibition (Escherichia coli HB101 [1]; 5.7 × 10^−2 mM) [mm]	Diameter of the zone of growth inhibition (Escherichia coli HB101 [1]; 5.7 × 10^−3 mM) [mm]	Diameter of the zone of growth inhibition (Bacillus subtilis W168 [3]; 5.7 × 10^0 mM) [mm]	Diameter of the zone of growth inhibition (Bacillus subtilis W168 [3]; 5.7 × 10^1 mM) [mm]	Diameter of the zone of growth inhibition (Bacillus subtilis W168 [3]; 5.7 × 10^−1 mM)	Diameter of the zone of growth inhibition (Bacillus subtilis W168 [3]; 5.7 × 10^−2 mM)	Diameter of the zone of growth inhibition (Bacillus subtilis W168 [3]; 5.7 × 10^−3 mM)	MIC [4]	Relative to AgNO3 [4]	MIC (Bacillus subtilis W168 [5])	Relative to AgNO3 (Bacillus subtilis W168 [5])	MIC (Escherichia coli HB101 [6])	Relative to AgNO3 (Escherichia coli HB101 [6])	Diameter of the zone of growth inhibition ([7]; 5.7 × 10^0 mM) [mm]	Diameter of the zone of growth inhibition ([7]; 5.7 × 10^1 mM) [mm]	Diameter of the zone of growth inhibition ([7]; 5.7 × 10^−1 mM) [mm]	Diameter of the zone of growth inhibition ([7]; 5.7 × 10^−2 mM) [mm]	further results
Fc1c(F)c(F)c(N=C(N=C(Nc2c(F)c(F)c(F)c(F)c2F)C(F)(F)C(F)(F)C(F)(F)F)C(F)(F)C(F)(F)C(F)(F)F)c(F)c1F [[N{(C3F7)C(C6F5)N}2]H]	9.0	9.5	9.0	8.5	7.0	39.0	71.0	47.0 mm	22.0 mm	10.0 mm	2643.48 μg/ml and 3.58 mM	5.14 × 10^−3	1.57 μg/ml and 2.12 × 10^−3 mM	69.34	2643.48 μg/ml and 3.58 mM	1.65 × 10^−2	8.0	9.0	8.0	8.0	antimicrobial activity (in words) [2]: Effective; Diameter of the zone of growth inhibition (Bacillus subtilis W168 [3]; 5.7 × 10^−4 mM): 8.0 mm; Diameter of the zone of growth inhibition (Bacillus subtilis W168 [3]; 5.7 × 10^−5 mM): 6.0 (NZ) mm; Diameter of the zone of growth inhibition (Bacillus subtilis W168 [3]; 5.7 × 10^−6 mM): 6.0 (NZ) mm; Diameter of the zone of growth inhibition (Bacillus subtilis W168 [3]; 5.7 × 10^−7 mM): 6.0 (NZ) mm; Diameter of the zone of growth inhibition ([7]; 5.7 × 10^−3 mM): 7.0 mm; MIC [8]: 1.57 μg/ml and 2.12 × 10^−3 mM; Relative to AgNO3 [8]: 34.71; Diameter of the zone of growth inhibition ([9]; 5.7 × 10^0 mM): 37.5 mm; Diameter of the zone of growth inhibition ([9]; 5.7 × 10^1 mM): 75.0 mm; Diameter of the zone of growth inhibition ([9]; 5.7 × 10^−1 mM): 40.0 mm; Diameter of the zone of growth inhibition ([9]; 5.7 × 10^−2 mM): 19.0 mm; Diameter of the zone of growth inhibition ([9]; 5.7 × 10^−3 mM): 9.0 mm; Diameter of the zone of growth inhibition ([9]; 5.7 × 10^−4 mM): 6.0 (NZ) mm; Diameter of the zone of growth inhibition ([9]; 5.7 × 10^−5 mM): 6.0 (NZ) mm; Diameter of the zone of growth inhibition ([9]; 5.7 × 10^−6 mM): 6.0 (NZ) mm; Diameter of the zone of growth inhibition ([9]; 5.7 × 10^−7 mM): 6.0 (NZ) mm
Cc1cc(C)c(N=C(N=C(Nc2c(C)cc(C)cc2C)C(F)(F)C(F)(F)C(F)(F)F)C(F)(F)C(F)(F)C(F)(F)F)c(C)c1 [[N{(C3F7)C(Mes)N}2]H]	8.0	10.0	7.5	7.0	7.0	8.0	9.0	6.0 (NZ) mm	6.0 (NZ) mm	6.0 (NZ) mm	1402.43 μg/ml and 2.18 mM	8.44 × 10^−3	2.69 mM (≈ 1730 µg/mL)	5.46 × 10^−2	1126.88 μg/ml and 1.75 mM	3.37 × 10^−2	8.5	9.0	7.5	7.5	Diameter of the zone of growth inhibition ([7]; 5.7 × 10^−3 mM): 7.0 mm; MIC [8]: 2252.38 μg/ml and 3.50 mM; Relative to AgNO3 [8]: 2.10 × 10^−2; Diameter of the zone of growth inhibition ([9]; 5.7 × 10^0 mM): 7.5 mm; Diameter of the zone of growth inhibition ([9]; 5.7 × 10^1 mM): 9.5 mm; Diameter of the zone of growth inhibition ([9]; 5.7 × 10^−1 mM): 6.0 (NZ) mm; Diameter of the zone of growth inhibition ([9]; 5.7 × 10^−2 mM): 6.0 (NZ) mm; Diameter of the zone of growth inhibition ([9]; 5.7 × 10^−3 mM): 6.0 (NZ) mm; antibacterial activity against Gram-positive organisms (in words) [10]: less effective
